The nature of series [1]: Stability of MitoBloCK-6 in screening buffer by LC-MS. It is filed as physicochemical. The note with it: pH 3.4, 6.5, 7.4; room temperature, 1 hour. The procedure:
MitoBloCK-6 at a final concentration of 3 mM was incubated with screening buffer (30 mM Hepes, 100 mM NaCl, 1 mM EDTA) at pH 3.4, 6.5, and 7.4 in a reaction volume of 100 μl at room temperature for 1 hour. The sample was injected into the LC-MS and retention was monitored. As a control, 20 mM MitoBloCK-6 in 1% DMSO was also analyzed.
LC-MS experiments were carried out on a Waters Acquity UPLC connected to a Waters LCT-Premier XE Time of Flight Instrument controlled by MassLynx 4.1 software. The mass spectrometer was equipped with a Multi-Mode Source operated in the electrospray mode. Briefly, samples of MitoBloCK-6, ES-1, and ES-2 were separated using an Acquity BEH C18 1.7 um column (2.1×50 mm, Waters) and were eluted with a gradient of 0.5 mL/min water/acetonitrile with 2, 80, and 95% acetonitrile at 0.5, 2.5 and 3.5 min, respectively. Mass spectra were recorded from 80 to 2000 Daltons. All solvents were LC-MS/MS Grade and purchased from Fisher Scientific.

For the next series, the system named is tim9-3 mutant. The experiment in a line: Yeast growth inhibition (MIC50), tim9-3 mutant. It is filed as cell-based. The note with it: Saccharomyces cerevisiae; disrupted for prd5 and snq2.
In series [2] the test system is tim10-1 tim9S mitochondria. Kind of series: Respiration (oxygen electrode) of tim10-1 tim9S mitochondria. Type of series: biochemical, yeast. The note with it: NADH; 25 μM MitoBloCK-1; CCCP as control. The procedure: Oxygen consumption of […] mitochondria was measured using methods previously described (8). Briefly, purified […] mitochondria aliquots (25 mg/mL) were thawed on ice and tested within 2 hours. A Clark-type oxygen electrode in a stirred, thermostatically controlled 1.5-ml chamber at 25° C. (Oxytherm; Hansatech) facilitated measurement. […] Consumption rate was monitored for approximately 2 min.

Series [3] concerns tim10-1 mutant overexpressing import components. Kind of series: Yeast growth inhibition, tim10-1 mutant overexpressing import components. Type of series: cell-based. The source says:
In general, a standard set of genetic and molecular techniques were used to generate the strains in this study (31, 32). Screening strains were generated based on previously characterized temperature sensitive mutants (see supplementary table 1). The snq1 and pdr5 deletions were introduced in each strain by strain mating with MDY326 or PCR-mediated deletion (33, 34). Overexpression strains were generated by transforming 2p yeast shuttle vectors carrying the gene of interest with the native promoter into the tim10-1 strain using a standard LiCl protocol (35). Transformed yeast was maintained on selective media appropriate for the plasmid's auxotrophic marker. Strains lacking mitochondrial DNA (rho null) were generated by two rounds of selection of the parent on YPD plates supplemented with ethidium bromide (40 μg/ml) followed by two rounds of single colony selection on YPD plates.
A primary screen was performed using freshly streaked tim10-1 diluted in YPD to an OD600 of approximately 0.0002 and kept on ice throughout the screening run. […] Each plate was shaken in a Beckman orbital shaker to resuspend settled cells, and the OD600 in each well was read by a Wallac Victor plate reader (Perkin Elmer). The top 600 growth inhibitory compounds were determined and assembled into two plates. […]

This is an account of results in patent US10758513B2, “Modulators of mitochondrial protein import” (THE REGENTS OF THE UNIVERSITY OF CALIFORNIA, priority 2011, dated 2020).

The structures appear in SMILES notation. Values after ≈ are worked out from the molar mass of the structure shown.

`Oc1c(Cl)cc(Cl)cc1/C=N/c1ccc(Nc2ccccc2)cc1` [MitoBloCK-6]: in series [1], the “stability by LC-MS” value is recorded as “stable over this pH range”.
For orientation: MIC50 means the lowest concentration that inhibits either 50% of growth or 50% of the strains tested, depending on the study. High values mean weaker potency, low ones greater potency. `NC(=S)N/N=C/c1c(O)c(Br)cc2oc3c(c12)CCCC3` [MitoBloCK-1] had an MIC50 against tim9-3 mutant of 11 µM (≈ 4.05 µg/mL). Also, the rate of respiration result in series [2] is on record as “did not significantly alter the rate of respiration”. In addition, the “growth inhibition of tim10-1 mutant with overexpression of import components” value in series [3] was “did not alter the ability of MitoBloCK-1 to inhibit growth”.
